US7579006B2, “Method of treating immune pathologies with low dose estrogen” (Oregon Health and Science University, priority 2000, dated 2009)

Tests used:
Assay type in all cases: in vivo
Tg female mice = assay: EAE in BV8S2 transgenic (Tg) female mice; settings: for inhibition of EAE: Tg females
IL-4 KO mice = assay: EAE induced with MOG 35-55 in IL-4 KO mice (clinical, histopathology); settings: 2.5 mg pellet
Method: (§1) Estrogen treatment. Sixty-day release pellets containing 2.5 mg of 17β-estradiol (E2) or vehicle were implanted subcutaneously (s.c) in the scapular region behind the neck using a 12-gauge trochar as described by the manufacturer (Innovative Research of America, Sarasota, Fla.). The mice were implanted one week prior to immunization with MOG 35-55. The concentration of E2 expected in the serum is between 1,500-2,000 pg/ml, which is approximately 5 times less than the levels found during pregnancy.
(§2) Induction of EAE. C57BL/6 and cytokine deficient mice were inoculated s.c in the flanks with 0.2 ml of an emulsion containing 200 μg of MOG 35-55 in saline and an equal volume of complete Freund's Adjuvant (CFA) containing 400 μg of Mycobacterium tuberculosis H37RA (Difco Laboratories, Detroit, Mich.). Disease induction required i.v. administration of pertussis toxin on the day of immunization (25 ng/mouse) and 2 days later (67 ng/mouse). The mice were assessed daily for clinical signs of EAE according to the 7 point scale described in Example I.
(§3) Histopathology. Histopathologic assessment of spinal column section was performed essentially as described in Example I, except that sections were stained with either luxol fast blue-periodic acid schiff-hematoxylin or silver nitrate prior to analysis.
(§4) Statistical analysis. Significant differences in incidence and mortality between untreated and E2 treated mice were assessed by Chi-square analysis. Difference in onset was determined using the two-tailed Student t test. Differences in peak score and cumulative disease index (CDI) were assessed by the Mann-Whitney test. Statistical significance of the frequency of cytokine secreting cells was analyzed using Student's t test for comparisons of two means. Differences in the expression of chemokine and cytokine mRNA were also determined using the Student t test. Values of p<0.05 were considered significant.

C57BL/6 mice = assay: EAE induced with MOG 35-55 in C57BL/6 mice (clinical, histopathology)
Method: as §1, §2, §3, §4

[1] = 0.36 mg pellet, intact Tg females (Example III)
[2] = non-ovariectomized Tg females, BV8S2 with weekly boosting, E2 0.36 mg pellets

## C[C@]12CC[C@@H]3c4ccc(O)cc4CC[C@H]3[C@@H]1CC[C@@H]2O [17β-estradiol]
Tg female mice; [1]
  CDI: 40.4 ± 7.1
  Incidence: 15/18
  Onset: 17.4 ± 1.8
  Peak: 2.5 ± 0.5
Tg female mice; 0.36 mg pellets
  inhibition of EAE: only moderate inhibition
Tg female mice; 15 mg pellets
  inhibition of EAE: marked but incomplete inhibition of EAE
Tg female mice; [2]
  Average CDI (10-30): 37.3 ± 6.2^A
  Incidence: 25/33
  Mortality: 1/33
  Onset: 15.1 ± 2.1A
  Peak: 3.6 ± 0.7^A
IL-4 KO mice; IL-4 KO
  CDI: 18.4 ± 22.2
  Incidence: 8/11
  Mortality: 0/11
  Onset: 20.6 ± 4.9
  Peak Score: 4.4 ± 1.0
IL-4 KO mice; IL-4KO, spinal cord
  Inflammatory foci/section: 0.0 ± 0.0 Foci/Section
C57BL/6 mice; B6, 2.5 mg pellet
  CDI: 15.1 ± 17.0
  Incidence: 19/31
  Mortality: 0/31
  Onset: 20.8 ± 3.7
  Peak Score: 4.2 ± 1.2
C57BL/6 mice; C57BL/6, 2.5 mg pellet, spinal cord
  Inflammatory foci/section: 0.0 ± 0.0 Foci/Section
